Laboratory results as given in patent US11083725B2 (priority 2014, dated 2021).

System: NHBE cells
Experiment: Biolog metabolic array: substrate use by NHBE cells with or without CA09 infection
Format: cell-based, human
Conditions: for Substrate use, 590 nm absorbance normalized to zero hour, 0 hr: Biolog PMM2, 0 hr; for Substrate use, 590 nm absorbance normalized to zero hour, 1 hr: Biolog PMM2, 1 hr; for Substrate use, 590 nm absorbance normalized to zero hour, 5 hr: Biolog PMM2, 5 hr; for Substrate use, 590 nm absorbance normalized to zero hour, 7 hr: Biolog PMM2, 7 hr
[1] = Control (uninfected) NHBE cells
[2] = Virus (CA09-infected, MOI 1) NHBE cells
[3] = Virus: CA09-infected NHBE cells, MOI 1, Biolog PMM2
[4] = Virus (CA09, MOI 1) infected NHBE cells

SMILES	590 nm absorbance normalized to zero hour (substrate use), 1 hr [1]	590 nm absorbance normalized to zero hour (substrate use), 2 hr [1]	590 nm absorbance normalized to zero hour (substrate use), 3 hr [1]	590 nm absorbance normalized to zero hour (substrate use), 4 hr [1]	590 nm absorbance normalized to zero hour (substrate use), 6 hr [1]	590 nm absorbance normalized to zero hour (substrate use), 8 hr [1]	590 nm absorbance normalized to zero hour (substrate use), 9 hr [1]	590 nm absorbance normalized to zero hour (substrate use), 10 hr [1]	590 nm absorbance normalized to zero hour (substrate use), 11 hr [1]	Substrate use, 590 nm absorbance normalized to zero hour, 1 hr [1]	Substrate use, 590 nm absorbance normalized to zero hour, 5 hr [1]	Substrate use, 590 nm absorbance normalized to zero hour, 7 hr [1]	590 nm absorbance normalized to zero hour (substrate use), 1 hr [2]	590 nm absorbance normalized to zero hour (substrate use), 2 hr [2]	590 nm absorbance normalized to zero hour (substrate use), 3 hr [2]	590 nm absorbance normalized to zero hour (substrate use), 4 hr [2]	590 nm absorbance normalized to zero hour (substrate use), 6 hr [2]	590 nm absorbance normalized to zero hour (substrate use), 8 hr [2]	590 nm absorbance normalized to zero hour (substrate use), 9 hr [2]	590 nm absorbance normalized to zero hour (substrate use), 10 hr [2]	other results
O=C(O)C[C@H](O)C(=O)O [L-Malic Acid]	1.11	1.27	1.37	1.35	0.72	1.35	1.39	1.37	1.43	1.11	1.41	1.33	1.48	1.19	1.27	3.32	1.42	3.48	1.72	2.20	590 nm absorbance normalized to zero hour (substrate use), 0 hr [1]: 1.00; Substrate use, 590 nm absorbance normalized to zero hour, 0 hr [1]: 1.00; 590 nm absorbance normalized to zero hour (substrate use), 0 hr [2]: 1.00; 590 nm absorbance normalized to zero hour (substrate use), 5 hr [2]: 1.59; 590 nm absorbance normalized to zero hour (substrate use), 7 hr [2]: 2.93; 590 nm absorbance normalized to zero hour (substrate use), 11 hr [2]: 2.05; 590 nm absorbance normalized to zero hour (substrate use), 0 hr [3]: 1.00; 590 nm absorbance normalized to zero hour (substrate use), 1 hr [3]: 1.48; 590 nm absorbance normalized to zero hour (substrate use), 2 hr [3]: 1.19; 590 nm absorbance normalized to zero hour (substrate use), 3 hr [3]: 1.27; 590 nm absorbance normalized to zero hour (substrate use), 4 hr [3]: 3.32; 590 nm absorbance normalized to zero hour (substrate use), 5 hr [3]: 1.59; 590 nm absorbance normalized to zero hour (substrate use), 6 hr [3]: 1.42; 590 nm absorbance normalized to zero hour (substrate use), 7 hr [3]: 2.93; 590 nm absorbance normalized to zero hour (substrate use), 8 hr [3]: 3.48; 590 nm absorbance normalized to zero hour (substrate use), 9 hr [3]: 1.72; 590 nm absorbance normalized to zero hour (substrate use), 10 hr [3]: 2.20; 590 nm absorbance normalized to zero hour (substrate use), 11 hr [3]: 2.05
CO[C@@H]1O[C@H](CO)[C@@H](O)[C@H](O)[C@H]1O [b-Methyl-D-Glucoside]	1.32	1.80	1.84	2.02	1.04	3.05	3.33	3.70	4.24	1.32	2.32	2.85	2.00	2.80	3.24	3.45	4.32	4.86	5.41	5.67	590 nm absorbance normalized to zero hour (substrate use), 0 hr [1]: 1.00; Substrate use, 590 nm absorbance normalized to zero hour, 0 hr [1]: 1.00; Substrate use, 590 nm absorbance normalized to zero hour, 0 hr [4]: 1.00; Substrate use, 590 nm absorbance normalized to zero hour, 1 hr [4]: 2.00; Substrate use, 590 nm absorbance normalized to zero hour, 5 hr [4]: 3.99; Substrate use, 590 nm absorbance normalized to zero hour, 7 hr [4]: 4.57; 590 nm absorbance normalized to zero hour (substrate use), 0 hr [2]: 1.00; 590 nm absorbance normalized to zero hour (substrate use), 11 hr [2]: 6.22
OC[C@H]1O[C@H](O[C@H]2[C@H](O)[C@@H](O)[C@H](O)O[C@@H]2CO)[C@H](O)[C@@H](O)[C@@H]1O [Maltose]	1.07	1.04	1.27	1.22	1.72	1.68	1.97	1.93	2.37	1.07	1.53	1.53	2.29	3.23	3.88	4.21	5.86	7.01	8.07	8.77	Substrate use, 590 nm absorbance normalized to zero hour, 1 hr [4]: 2.29; Substrate use, 590 nm absorbance normalized to zero hour, 5 hr [4]: 5.22; Substrate use, 590 nm absorbance normalized to zero hour, 7 hr [4]: 6.41; 590 nm absorbance normalized to zero hour (substrate use), 11 hr [2]: 8.43
